These are literature values, as cited in patent publication US12018060B2 (HANMI PHARM CO., LTD., priority 2014, dated 2024).

The conditions of this data set: after one year of administration.

For `CCCCCCCCCCC[C@@H](C[C@@H]1OC(=O)[C@H]1CCCCCC)OC(=O)[C@H](CC(C)C)NC=O` [Orlist®, Orlistat], the body weight decrease entry is recorded as “about 4 kg”.
